Laboratory results reported in patent US7741344B2, “Process for preparing purified S-BEL and R-BEL and compositions thereof” (Washington University in St. Louis, priority 2002, dated 2010).

System: A-10 smooth muscle cells
Experiment: AVP-induced [3H]-arachidonic acid liberation from A-10 cells
Format: cell-based, rat
Conditions: 1 μM AVP, FIG. 5
Procedure: Quantification of [^3H]-Arachidonic Acid Liberation from A-10 Phospholipids—Rat aortic smooth muscle A-10 cells, cultured in 60 mm dishes (2.5×10^5 cells/dish), were radiolabeled with 0.5 μCi [^3H]-arachidonic acid per dish as previously described (29). Cells were washed once with DMEM containing 0.25% fatty acid free bovine serum albumin followed by two washes with DMEM alone. Cells were then incubated with the indicated concentrations of (R)-, (S)-, rac-BEL, or ethanol vehicle (0.1% final concentration) in DMEM for 20 min. This media was removed and the cells were then incubated with DMEM containing 10% heat-inactivated fetal bovine serum in the absence or presence of 1 μM AVP. In some tests, PMA (1 μM) or DOG (10 μM) was added to the medium containing AVP. After 5 mm, 1 ml of this medium was removed, lipids were extracted into 2 ml of chloroform/methanol/acetic acid (25:24:1 v/v) (38), and the remaining cells were scraped into 1 ml of deionized water prior to lipid extraction as described above. The chloroform layer was evaporated under nitrogen and the extracted lipids were separated by thin layer chromatography (petroleum ether/ethyl ether/glacial acetic acid 70:30:1). Regions containing fatty acids and phospholipids were scraped into vials and radioactivity was quantified by liquid scintillation spectrometry.
A-10 cells (2.5×10^5 cells/dish) were radiolabeled with [^3H]-arachidonic acid (0.5 μCi/dish) for 20 hrs. After washing to remove unincorporated [^3H]-arachidonic acid, cells were then incubated with either 1 μM or 5 μM (R)-BEL, (S)-BEL, rac-BEL, or ethanol vehicle (0.1%) in DMEM for 20 mm. This media was removed and the cells were then incubated with 3 ml of DMEM containing 10% heat-inactivated fetal bovine serum with or without 1 μM AVP. After 5 min, 1 ml of this medium was removed and lipids were extracted into 2 ml of chloroform/methanol/acetic acid (25:24:1). The remaining cells were scraped into 1 ml of deionized water and total lipids were extracted as described above. The chloroform layer was evaporated under nitrogen and the extracted lipids were separated by TLC. Regions containing fatty acids and phospholipids were scraped into vials and radioactivity was quantified by liquid scintillation spectrometry. Results are representative of four separate tests.
A-10 cells were radiolabeled with [^3H]-arachidonic acid, washed, and pre-incubated with 5 μM (S)-BEL or ethanol vehicle alone for 15 min as described in FIG. 5. DMEM media containing 10% heat-inactivated fetal bovine serum with or without 1 μM AVP was then added to the cells. After 5 min at 37° C., [^3H]-arachidonic acid released into the media and remaining within the cells (free and incorporated into phospholipids) was extracted into chloroform, separated by TLC, and quantified by liquid scintillation spectrometry as described in “Experimental Procedures”. Results are representative of three separate tests.

SMILES | AVP-induced increase in non-esterified [3H]-arachidonic acid (in words) (1 and 5 μM inhibitor) | inhibition of AVP-induced AA release (5 μM inhibitor, 20 min pretreatment)
O=C1OC(=CBr)CCC1c1cccc2ccccc12 (racemic) [rac-BEL, Racemic (E)-6-(bromomethylene)-3-(1-naphthalenyl)-2H-tetrahydropyran-2-one] | significantly reduced | –
O=C1O/C(=C/Br)CC[C@@H]1c1cccc2ccccc12 [(R)-BEL, (R)(E)-6-(bromomethylene)-3-(1-naphthalenyl)-2H-tetrahydropyran-2-one] | – | about 10%
